As a reminder, the IC50 is the concentration that inhibits the measured activity by half. A lower IC50 goes with inhibition by little substance. For orientation: AUC(0-t) means exposure summed from dosing to a finite time, without extrapolation to infinity. As a reminder, the Cmax is the peak of the concentration-time curve. Broadly, the Tmax is the time from dosing to the highest level.

Data on 2 compounds can be found in US20220056014A1, “PHENYLPYRROLIDINE COMPOUND AND USE THEREOF” (WUHAN HUMANWELL INNOVATIVE DRUG RESEARCH AND DEVELOPMENT …, priority 2018, published 2022).

Where two headings read alike, the source gives them in different places.

One data set has as its target T1, PDE4D (Homo sapiens, UniProt Q08499).
T1 construct: purchased Enzo Life Sciences BML-SE523-0020
The experiment in a line: PDE4D enzyme activity assay (PDE-Glo Phosphodiesterase Assay Kit). Type of data set: biochemical. The essentials: (§1)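 Recombinant human PDE4B (1 ng/μl working solution) or PDE4D (4 ng/μl working solution) preincubated 5 min at RT with compound, then reacted 20 min with cAMP (2 μM in added solution). PDE-Glo termination/detection and Kinase-Glo steps followed; luminescence read and IC50 fitted.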

In another data set the target is T2, PDE4B (Homo sapiens, UniProt Q07343).
T2 construct: purchased Enzo Life Sciences BML-SE522-0020
T2 sequence (Q07343 whole entry): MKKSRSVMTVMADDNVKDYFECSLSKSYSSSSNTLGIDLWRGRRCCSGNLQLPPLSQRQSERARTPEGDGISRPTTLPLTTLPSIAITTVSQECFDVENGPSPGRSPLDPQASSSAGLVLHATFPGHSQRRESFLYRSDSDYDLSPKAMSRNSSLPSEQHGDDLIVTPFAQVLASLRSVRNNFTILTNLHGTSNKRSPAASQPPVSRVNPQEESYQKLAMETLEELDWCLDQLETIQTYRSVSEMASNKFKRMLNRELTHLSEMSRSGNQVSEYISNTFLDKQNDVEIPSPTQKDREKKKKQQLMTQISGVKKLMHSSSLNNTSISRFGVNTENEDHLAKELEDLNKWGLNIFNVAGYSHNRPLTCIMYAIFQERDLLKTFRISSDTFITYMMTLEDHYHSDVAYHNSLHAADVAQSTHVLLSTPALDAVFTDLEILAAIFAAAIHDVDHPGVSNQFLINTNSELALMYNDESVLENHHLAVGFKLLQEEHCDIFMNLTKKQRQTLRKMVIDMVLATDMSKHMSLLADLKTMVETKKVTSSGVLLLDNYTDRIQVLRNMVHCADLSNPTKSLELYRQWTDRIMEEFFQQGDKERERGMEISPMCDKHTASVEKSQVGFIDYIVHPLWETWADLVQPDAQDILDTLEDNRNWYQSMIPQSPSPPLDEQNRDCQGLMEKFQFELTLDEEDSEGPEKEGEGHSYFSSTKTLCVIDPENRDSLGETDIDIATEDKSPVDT
The experiment in a line: PDE4B enzyme activity assay (PDE-Glo Phosphodiesterase Assay Kit). Type of data set: biochemical. To be noted: for IC50 (PDE4D)/IC50 (PDE4B): selectivity ratio. An outline of the steps: as §1

The subject of data set [1] is LPS-stimulated TNF-α release. The experiment in a line: LPS-stimulated TNF-α release in mice. It counts as in vivo, Balb/c mice. The settings on record: Mus musculus, oral 50 mg/kg (positive control 100 mg/kg), 1 mg/kg LPS i.p. How it is done:
18 Balb/c mice (6 to 8 weeks) were randomly assigned to a blank group, a model group, and an administration group, 6 mice in each group. A vehicle (blank group, model group) or 50 mg/kg compound (administration group, where the dose for the positive control group was 100 mg/kg) was orally administrated. 30 min after the oral administration, PBS (blank group) or 1 mg/kg LPS (model group and administration group) was injected intraperitoneally. 90 min or 120 min after the intraperitoneal injection, blood was collected from the hearts of the mice, and still stood at 2-8° C. for 4 hours, and centrifuged at 5000 rpm for 10 min to collect the serum. The serum was stored at −80° C. for testing.
The serum TNF-α level was tested using a mouse TNF-α detection kit (Mouse TNFa ELISA kit: Biolegend, Cat: 430904). The inhibitory activity of the compounds against the TNF-α release was calculated based on the serum TNF-α level.
Inhibitory activity of compound %={1−(TNFα concentration of administration group−TNFα concentration of blank group)/(TNFα concentration of model group−TNFα concentration of blank group)}×100%.

The nature of data set [2]: Pharmacokinetic test in canine. The settings on record: male, beagle, dog, plasma, oral gavage 5 mg/kg. It counts as in vivo, beagle dogs. On the procedure: (§2) In the rat pharmacokinetic test, 3 male SD rats (180-240 g) were fasted overnight, and orally administered with 10 mg/kg of compound to be tested. Blood was collected before the administration, and 15 min, 30 min, 1 h, 2 h, 4 h, 8 h, and 24 h hours after the administration. The blood sample was centrifuged at 8000 rpm for 6 min at 4° C., and the plasma was collected and stored at −20° C. The plasma collected at each time point was added and mixed with 3-5 times the amount of acetonitrile solution containing an internal standard, vortexed for 1 min, centrifuged at 13,000 rpm for 10 min at 4° C. The supernatant was taken and mixed with 3 times the amount of water, and an appropriate amount of the mixture was taken for LC-MS/MS analysis. The main pharmacokinetic parameters were analyzed with WinNonlin 7.0 software non-compartmental model.
(§3) In the mouse pharmacokinetic test, 9 male CD-1 mice (20-25 g) were fasted overnight, and orally administered with 10 mg/kg of the compound to be tested. Bloods of 3 mice were collected at each time point, and bloods of 9 mice were alternately collected in total. In the pharmacokinetic test in canine, 3 male beagle dogs (8-10 kg) were fasted overnight, and orally administered with 5 mg/kg of the compound to be test. In the pharmacokinetic test of cynomolgus monkeys, 3 male cynomolgus monkeys (4 to 6.5 kg) were fasted overnight, and orally administered 20 mg/kg of the compound to be test. The remaining processes are the same as those of the rat pharmacokinetic test.

Data set [3] in a line: Mouse pharmacokinetic test. Type of data set: in vivo, CD-1 mice. To be noted: male, CD-1, plasma, oral gavage 10 mg/kg. How it is done: as §2, §3
Data set [4] deals with LPS-induced secretion of TNFα in human PBMCs. The experiment in a line: LPS-induced secretion of TNFα in human PBMCs. Type of data set: cell-based. To be noted: Homo sapiens, PBMC, 24 h, LPS 10 ng/ml. An outline of the steps:
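PBMCs isolated by Lymphoprep density centrifugation were seeded at 5×10^4/well in RPMI1640 + 10% FBS and given compound, with 30 min pre-incubation, then stimulated with 10 ng/ml LPS (final). After 24 h, supernatant TNF-α was measured by ELISA kit.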

The nature of a further data set: Rat pharmacokinetic test. It counts as in vivo, SD rats. To be noted: male, Sprague-Dawley (SD), plasma, oral gavage 10 mg/kg. How it is done:
as §2

Data set [5] has as its system Mouse CIA arthritis model. The experiment in a line: Mouse CIA arthritis model test. Type of data set: in vivo, DBA/1 mice. The settings on record: 30 mg/kg oral, twice a day for 21 days. On the procedure: (1) Preparation of Type II Collagen/Complete Freund's Adjuvant
Preparation of acetic acid: 2N acetic acid was diluted to 100 mM, filtered with 0.22 μm filter membrane, and stored at 4° C.
Preparation of bovine type II collagen solution: bovine type II collagen (CII) was dissolved in 100 mM acetic acid solution and stored at 4° C. overnight. A final concentration of collagen was 8 mg/mL.
Preparation of emulsion: the CII solution stored overnight was mixed with an equal volume of complete Freund's adjuvant, and homogenized on ice by a high-speed homogenizer at 30,000 rpm for approximately 60 min, until the solution formed a stable emulsion.
After DBA/1 mice were anesthetized with isoflurane, 50 μl of prepared collagen emulsion (containing 200 micrograms of CII) was injected subcutaneously in the tail (2-3 cm from the base of the tail) for immunization. The day of the primary immunization was recorded as day 0, and the following days were recorded sequentially. On day 21, the same volume of collagen emulsion was injected into the tail in the same way. Mice in the normal group were not immunized.
On day 21, the mice that had been induced to have arthritis were randomly grouped according to their body weights, such that the average body weight of each group was consistent, and they were randomly divided into 6 treatment groups for administration, with 10 mice in each group.
G1 group included normal mice without being treated; G2 group was given a blank vehicle; G3 to G7 groups were administrated with the compound at a dose of 30 mg/kg, twice a day for 21 days. The volume of oral administration was 10 mL/kg.
After the enhanced immunization, the disease incidence of the mice was observed every day. When the mice began to develop symptoms (clinical symptoms of arthritis emerged), the symptoms were graded as 0 to 4 according to the different degrees of pathological changes (redness, joint deformation), where the highest score for each limb was 4, and the highest score for each animal was 16. The mice were graded at least three times a week.
The area under curve (AUC) of clinical scores of each group from day 21 to day 42 was calculated, and the inhibition rate % of the clinical score AUC of the administration group was calculated:
Inhibition rate %=1−(administration group AUC/blank vehicle group AUC)*100%
The experimental data are expressed as Mean±standard error (Mean±SEM), and the clinical scores were analyzed with One-way ANOVA, where p<0.05 was considered to be a significant difference.

[6] abbreviates: 1.5 h, blood 90 min after LPS, read-out: Inhibition rate (%) of LPS-stimulated TNF-α release, 90 min.
The mark [7] stands for this setting: 2 h, blood 120 min after LPS, read-out: Inhibition rate (%) of LPS-stimulated TNF-α release, 120 min.

T1 sequence (Q08499 whole entry): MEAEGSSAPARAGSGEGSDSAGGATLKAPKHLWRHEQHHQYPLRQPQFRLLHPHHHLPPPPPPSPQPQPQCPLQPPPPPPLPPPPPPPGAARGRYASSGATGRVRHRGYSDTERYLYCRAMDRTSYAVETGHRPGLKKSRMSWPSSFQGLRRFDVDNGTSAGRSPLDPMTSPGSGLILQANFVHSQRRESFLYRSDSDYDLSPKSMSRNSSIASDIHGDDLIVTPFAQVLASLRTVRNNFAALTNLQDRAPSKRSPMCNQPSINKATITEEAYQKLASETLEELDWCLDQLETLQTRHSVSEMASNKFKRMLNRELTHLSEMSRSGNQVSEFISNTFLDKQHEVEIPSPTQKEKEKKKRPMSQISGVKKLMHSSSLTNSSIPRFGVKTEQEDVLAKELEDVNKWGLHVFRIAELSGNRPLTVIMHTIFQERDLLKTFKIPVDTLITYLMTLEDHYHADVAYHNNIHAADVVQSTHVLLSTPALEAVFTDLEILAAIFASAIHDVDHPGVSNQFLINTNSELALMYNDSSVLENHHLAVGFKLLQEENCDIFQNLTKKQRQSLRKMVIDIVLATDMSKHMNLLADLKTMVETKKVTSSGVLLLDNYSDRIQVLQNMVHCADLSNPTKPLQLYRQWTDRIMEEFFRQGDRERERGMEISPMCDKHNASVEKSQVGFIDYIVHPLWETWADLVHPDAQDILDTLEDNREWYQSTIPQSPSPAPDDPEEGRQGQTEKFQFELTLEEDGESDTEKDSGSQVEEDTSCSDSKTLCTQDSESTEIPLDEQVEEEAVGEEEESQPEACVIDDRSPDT

With `COc1ccc([C@@H]2CN(C(=O)[C@@H](O)CO)C[C@@]2(C)[C@@H](C)O)cc1OC1CN(c2cc(C)c(Cl)cn2)C1` [Compound 010, (S)-1-((3S,4S)-4-(3-((1-(5-chloro-4-methylpyridin-2-yl)azetidin-3-yl)oxy)-4-methoxyphenyl)-3-((R)-1-hydroxyethyl)-3-methylpyrrolidin-1-yl)-2,3-dihydroxypropan-1-one], the results for the IC50 (against PDE4D; at PDE4B; in data set [4]) were 0.95 nM, 1.9 nM and 1.05 nM, respectively. For the same compound, the “IC50 (PDE4D)/IC50 (PDE4B)” value at PDE4B was 0.50. Moreover, the inhibition in vivo at 50 mg/kg in data set [1] (setting [6]) is 47.6%; in data set [1] (setting [7]), 65.4%. Besides, the figures for the exposure AUC(0-t) (in data set [2]; in data set [3]; in “Rat pharmacokinetic test”) were 1640 ng·h/mL, 645 ng·h/mL and 95.3 ng·h/mL, respectively. The highest concentration (Cmax) in data set [2] was 413 ng/mL; in data set [3], 314 ng/mL; in “Rat pharmacokinetic test” it was 40.4 ng/mL. The Tmax came to 49.8 min in data set [2], 15 min in data set [3] and 19.8 min in the data set “Rat pharmacokinetic test”.

Regarding `CCc1ccc(N2CC(Oc3cc([C@@H]4CN(C(=O)[C@@H](O)CO)C[C@@]4(C)[C@@H](C)O)ccc3OC)C2)nc1` [Compound 031, (S)-1-((3S,4S)-4-(3-((1-(5-ethylpyridin-2-yl)azetidin-3-yl)oxy)-4-methoxyphenyl)-3-((R)-1-hydroxyethyl)-3-methylpyrrolidin-1-yl)-2,3-dihydroxypropan-1-one], the figures for the IC50 (on PDE4D; against PDE4B; in data set [4]) were 2.56 nM, 1.87 nM and 0.7 nM, respectively. The “IC50 (PDE4D)/IC50 (PDE4B)” value on PDE4B was found to be 1.37. Further, the inhibition in vivo at 50 mg/kg in data set [1] (setting [6]) worked out at 64.8%; in data set [1] (setting [7]) it was 78.3%. Further, the “inhibition rate based on clinical score AUC” value in data set [5] (AUC day 21 to day 42) is reported as 85.0%. Besides, the “Clinical score (endpoint)” value in data set [5] (day 42, highest score 16) came out at 2.1.
